Source: patent US4861788A, “Antibacterial 1-normon-2-yl-heterocyclic compounds” (Beecham Group plc, priority 1983, dated 1989)
In brackets after ≈: the same amount, converted by molar mass. Like-named read-outs stand apart in the source and are kept apart here.

What was measured:
Bord. bronchiseptica B09 = test: MIC against veterinary bacteria in vitro (Diagnostic Sensitivity Test Agar); details: Bordetella bronchiseptica, B09, 18 h
Experimental: (§2) The activity of the normonyl derivatives of the Examples against various veterinarily important bacteria, was assayed in vitro using two-fold serial dilutions in Diagnostic Sensitivity Test Agar inoculated with 10^4 organisms.

S. typhimurium S18 = test: as above; details: Salmonella enterica, 18 h
Experimental: as §2

M. dispar NCTC 10125 = test: MIC against Mycoplasma in vitro (Friis broth with agarose); type: cell-based; details: 144 h
[1] = tested on: Strep. suis (group D) SPS11; test: MIC against veterinary bacteria in vitro (Diagnostic Sensitivity Test Agar); details: Streptococcus suis, 18 h
Experimental: as §2

[2] = tested on: Staph. aureus B4 (pen. resistant); test: as above; details: Staphylococcus aureus, 18 h
Experimental: as §2

M. hyopneumoniae HK (2) = test: MIC against Mycoplasma in vitro (Friis broth with agarose); type: cell-based; details: Mesomycoplasma hyopneumoniae, 144 h
E. coli NCTC 10418 = test: MIC against veterinary bacteria in vitro (Diagnostic Sensitivity Test Agar); details: Escherichia coli, NCTC10418, 18 h
Experimental: as §2

S. dublin S7 = test: as above; details: Salmonella enterica, S7, 18 h
Experimental: as §2

Strep. agalactiae SPA1 = test: as above; details: Streptococcus agalactiae, SPA1, 18 h
Experimental: as §2

M. hyopneumoniae TAM 6N = test: MIC against Mycoplasma in vitro (Friis broth with agarose); type: cell-based; details: Mesomycoplasma hyopneumoniae, TAM6N, 144 h
[3] = tested on: M. bovigenitalium ATCC 14173; test: as above; type: cell-based; details: 144 h
[4] = tested on: M. hyosynoviae ATCC 25591; test: as above; type: cell-based; details: 144 h
Strep. dysgalactiae SPD1 = test: MIC against veterinary bacteria in vitro (Diagnostic Sensitivity Test Agar); details: Streptococcus dysgalactiae, SPD1, 18 h
Experimental: as §2

Staph. aureus Oxford [5] = test: as above; details: Staphylococcus aureus, 18 h
Experimental: as §2

E. coli ESS = test: MIC against human bacteria in vitro (nutrient agar, chocolated horse blood); type: cell-based; details: Escherichia coli; human; E. coli ESS; 18 hours at 37° C; read-out: MIC
How it was run: (§1)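 Agar dilution series; medium supplemented with 5% chocolated horse blood; MIC taken from the dilution series.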

[6] = tested on: Haemophilus influenzae Wy21; test: as above; type: cell-based; details: human; Haemophilus influenzae Wy21; 18 hours at 37° C; read-out: MIC
How it was run: as §1

K. aerogenes A = test: as above; type: cell-based; details: Klebsiella aerogenes; human; K. aerogenes A; 18 hours at 37° C; read-out: MIC
How it was run: as §1

Staph. aureus Oxford [7] = test: as above; type: cell-based; details: Staphylococcus aureus
How it was run: as §1

[8] = tested on: Neisseria catarrhalis 1502; test: as above; type: cell-based
How it was run: as §1

Past. haemolytica PA5 = test: MIC against veterinary bacteria in vitro (Diagnostic Sensitivity Test Agar); details: Mannheimia haemolytica, PA5, 18 h
Experimental: as §2

B. subtilis ATCC 6633 = test: as above; details: Bacillus subtilis, ATCC6633, 18 h
Experimental: as §2

[9] = tested on: M. hyopneumoniae PW/C/210; test: MIC against Mycoplasma in vitro (Friis broth with agarose); type: cell-based; details: Mesomycoplasma hyopneumoniae, 144 h; M. hyopneumoniae PW/C/210; 6 days at 37° C; read-out: MIC
M. hyopneumoniae LABER = test: as above; type: cell-based; details: Mesomycoplasma hyopneumoniae, 144 h; M. hyopneumoniae LABER; 6 days at 37° C; read-out: MIC
[10] = tested on: Corynebacterium xerosis 9755; test: MIC against human bacteria in vitro (nutrient agar, chocolated horse blood); type: cell-based; details: human; Corynebacterium xerosis 9755; 18 hours at 37° C; read-out: MIC
How it was run: as §1

[11] = tested on: Strep. pyogenes R80/421-A; test: as above; type: cell-based; details: Streptococcus pyogenes; human; Strep. pyogenes R80/421-A; 18 hours at 37° C; read-out: MIC
How it was run: as §1

M. hyopneumoniae NB12 = test: MIC against Mycoplasma in vitro (Friis broth with agarose); type: cell-based; details: Mesomycoplasma hyopneumoniae
Strep. pneumoniae CN33 = test: MIC against human bacteria in vitro (nutrient agar, chocolated horse blood); type: cell-based; details: Streptococcus pneumoniae; human; Strep. pneumoniae CN33; 18 hours at 37° C; read-out: MIC
How it was run: as §1

[12] = M. dispar NCTC 10125, 6 days at 37° C, read-out: MIC
[13] = M. hyopneumoniae TAM 6N, 6 days at 37° C, read-out: MIC
[14] = M. bovigenitalium ATCC 14173, 6 days at 37° C, read-out: MIC
[15] = M. hyosynoviae ATCC 25591, 6 days at 37° C, read-out: MIC
[16] = human, Staph. aureus Oxford, 18 hours at 37° C, read-out: MIC
[17] = M. hyopneumoniae HK (2), 6 days at 37° C, read-out: MIC
[18] = human, Neisseria catarrhalis 1502, 18 hours at 37° C, read-out: MIC
[19] = 144 h, M. hyopneumoniae NB12, 6 days at 37° C, read-out: MIC

| SMILES | MIC (Bord. bronchiseptica B09) [µg/mL] | MIC (S. typhimurium S18) [µg/mL] | MIC [1] [µg/mL] | MIC [2] [µg/mL] | MIC (E. coli NCTC 10418) [µg/mL] | MIC (S. dublin S7) [µg/mL] | MIC (Strep. agalactiae SPA1) [µg/mL] | MIC (Strep. dysgalactiae SPD1) [µg/mL] | MIC (Staph. aureus Oxford [5]) [µg/mL] | MIC (E. coli ESS) [µg/mL] | MIC [6] [µg/mL] | MIC (K. aerogenes A) [µg/mL] | MIC (Past. haemolytica PA5) [µg/mL] | MIC (B. subtilis ATCC 6633) [µg/mL] | MIC [9] [µg/mL] | MIC (M. dispar NCTC 10125; [12]) [µg/mL] | MIC (M. hyopneumoniae TAM 6N; [13]) [µg/mL] | MIC [3, 14] [µg/mL] | MIC [4, 15] [µg/mL] | MIC (Staph. aureus Oxford [7]; [16]) [µg/mL] | further results |
| --- | --- | --- | --- | --- | --- | --- | --- | --- | --- | --- | --- | --- | --- | --- | --- | --- | --- | --- | --- | --- | --- |
| CC(=Cc1nnc(-c2ccc(N(C)C)cc2)o1)CC1OCC(CC2OC2C(C)C(C)O)C(O)C1O (stereo not shown) [Example 10, 2-(4-Dimethylaminophenyl)-5-(1-normon-2-yl)-1,3,4-oxadiazole A] | > 80 | > 80 | > 80 | 5 (≈ 10.3 µM) | > 80 | > 80 | > 80 | 80 (≈ 164 µM) | 20 (≈ 41 µM) | 2 (≈ 4.1 µM) | 2 (≈ 4.1 µM) | > 128 | 40 (≈ 82 µM) | 5 (≈ 10.3 µM) | – | – | – | – | – | – | MIC (M. dispar NCTC 10125): 0.5 µg/mL (≈ 1.03 µM); MIC (M. hyopneumoniae HK (2)): 5 µg/mL (≈ 10.3 µM); MIC (M. hyopneumoniae TAM 6N): 5 µg/mL (≈ 10.3 µM); MIC [3]: 1 µg/mL (≈ 2.05 µM); MIC [4]: 2.5 µg/mL (≈ 5.13 µM); MIC (Staph. aureus Oxford [7]; 18 h): 1 µg/mL (≈ 2.05 µM); MIC ([8]; Neisseria, 1502, 18 h): 0.5 µg/mL (≈ 1.03 µM) |
| CC(=Cc1nnc(-c2cccnc2)o1)CC1OCC(CC2OC2C(C)C(C)O)C(O)C1O (stereo not shown) [Example 5, 2-(1-Normon-2-yl)-5-(3-pyridyl)-1,3,4-oxadiazole A] | 20 (≈ 44.9 µM) | > 80 | > 80 | 10 (≈ 22.4 µM) | > 80 | > 80 | 20 (≈ 44.9 µM) | 10 (≈ 22.4 µM) | 20 (≈ 44.9 µM) | 4 (≈ 8.98 µM) | 0.5 (≈ 1.12 µM) | > 128 | – | 2.5 (≈ 5.61 µM) | 1 (≈ 2.24 µM) | 0.5 (≈ 1.12 µM) | 2.5 (≈ 5.61 µM) | 0.25 (≈ 0.561 µM) | 1 (≈ 2.24 µM) | 8 (≈ 18 µM) | MIC (M. hyopneumoniae LABER): 1 µg/mL (≈ 2.24 µM); MIC [10]: > 128 µg/mL; MIC [11]: 8 µg/mL (≈ 18 µM); MIC (M. hyopneumoniae NB12; NB12, 144 h): 2.5 µg/mL (≈ 5.61 µM) |
| CC(=Cc1nnnn1CCCCCCCCC(=O)O)CC1OCC(CC2OC2C(C)C(C)O)C(O)C1O (stereo not shown) [Example 14, Sodium 1-(8-carboxylatooctyl)-5-(1-normon-2-yl)-1H-tetrazole A] | > 80 | > 80 | > 80 | > 80 | > 80 | > 80 | > 80 | > 80 | > 80 | > 128 | 128 | > 128 | > 80 | – | – | 10 | > 10 | 10 | > 10 | > 128 | MIC (M. hyopneumoniae HK (2); [17]): > 10 µg/mL; MIC (M. hyopneumoniae LABER): > 10 µg/mL; MIC (Strep. pneumoniae CN33): > 128 µg/mL; MIC [10]: > 128 µg/mL; MIC [11]: > 128 µg/mL; MIC [8, 18]: > 128 µg/mL; MIC (M. hyopneumoniae NB12; [19]): > 10 µg/mL |
| CC(=Cc1nnc(-c2ccco2)o1)CC1OCC(CC2OC2C(C)C(C)O)C(O)C1O (stereo not shown) [Example 8, 2-(2-Furyl)-5-(1-normon-2-yl)-1,3,4-oxadiazole A] | 80 (≈ 184 µM) | > 80 | > 80 | 20 (≈ 46 µM) | > 80 | > 80 | > 80 | 40 (≈ 92.1 µM) | 80 (≈ 184 µM) | 8 (≈ 18.4 µM) | 0.25 (≈ 0.575 µM) | > 128 | 40 (≈ 92.1 µM) | 10 (≈ 23 µM) | – | 1 (≈ 2.3 µM) | 10 (≈ 23 µM) | 0.5 (≈ 1.15 µM) | 2.5 (≈ 5.75 µM) | 4 (≈ 9.21 µM) | MIC (M. hyopneumoniae HK (2); [17]): 10 µg/mL (≈ 23 µM); MIC [8, 18]: 0.5 µg/mL (≈ 1.15 µM) |
| CC(=Cc1nnc(-c2cccc(C#N)c2)o1)CC1OCC(CC2OC2C(C)C(C)O)C(O)C1O (stereo not shown) [Example 11, 2-(m-Cyanophenyl)-5-(1-normon-2-yl)-1,3,4-oxadiazole A] | 40 (≈ 85.2 µM) | > 80 | > 80 | 20 (≈ 42.6 µM) | > 80 | > 80 | 5 (≈ 10.6 µM) | 2.5 (≈ 5.32 µM) | 5 (≈ 10.6 µM) | 2 (≈ 4.26 µM) | 0.5 (≈ 1.06 µM) | > 64 | 10 (≈ 21.3 µM) | 2.5 (≈ 5.32 µM) | 0.1 (≈ 0.213 µM) | – | 0.25 (≈ 0.532 µM) | 0.1 (≈ 0.213 µM) | 0.5 (≈ 1.06 µM) | 8 (≈ 17 µM) | MIC (M. dispar NCTC 10125): 0.05 µg/mL (≈ 0.106 µM); MIC [8, 18]: 0.25 µg/mL (≈ 0.532 µM); MIC (M. hyopneumoniae NB12; NB12, 144 h): 0.25 µg/mL (≈ 0.532 µM) |
| CC(=Cc1nnc(-c2ccc(S(C)(=O)=O)cc2)o1)CC1OCC(CC2OC2C(C)C(C)O)C(O)C1O (stereo not shown) [Example 4, 2-p-Methylsulphonylphenyl-5-(1-normon-2-yl)-1,3,4-oxadiazole A] | 10 (≈ 19.1 µM) | > 80 | 80 (≈ 153 µM) | 5 (≈ 9.57 µM) | > 80 | > 80 | 10 (≈ 19.1 µM) | 10 (≈ 19.1 µM) | 10 (≈ 19.1 µM) | 4 (≈ 7.65 µM) | 1 (≈ 1.91 µM) | > 64 | 20 (≈ 38.3 µM) | 5 (≈ 9.57 µM) | 0.1 (≈ 0.191 µM) | – | 0.5 (≈ 0.957 µM) | 0.25 (≈ 0.478 µM) | 1 (≈ 1.91 µM) | 8 (≈ 15.3 µM) | MIC (M. hyopneumoniae HK (2); [17]): 0.25 µg/mL (≈ 0.478 µM); MIC (M. hyopneumoniae LABER): 0.25 µg/mL (≈ 0.478 µM); MIC [10]: > 64 µg/mL; MIC [11]: 16 µg/mL (≈ 30.6 µM); MIC (M. hyopneumoniae NB12; [19]): 0.25 µg/mL (≈ 0.478 µM) |
